Assay results as given in patent US20090227546A1, “PHARMACEUTICAL COMPOSITION OF DROSPIRENONE AND ETHYNYLESTRADIOL” (Laboratories Liconse, S.A., priority 2004, published 2009).

Columns and labels:
[1] = Dissolution profile of crystalline drospirenone tablets in acidic medium (USP 27 apparatus 2); format: physicochemical; conditions: HCl 0.1 N, regardless of the size of the particle, FIG. 16
Procedure: The dissolution profiles were obtained from tablets containing drospirenone in a crystalline state with different sized particles, using a dissolution apparatus designated in the U.S. Pharmacopoeia, Edition 27, apparatus 2, at 50 rpm and 900 ml of lauryl sulfate 0.07% in a strongly acidic medium, HCl 0.1 N, thermostatized at 37° C.

[2] = Dissolution of drospirenone in methanol as granulation solvent; format: physicochemical
Procedure: About 16.00 ml of the dichloromethane/methanol solution at about a 6:1 ratio were placed in a stainless steel stirring apparatus. Next, about 0.0306 g of ethynylestradiol, non-micronized with a particle size no less than about 50 μm (addition of an excess of about 2% was foreseen to make up for losses during the process), were added under constant stirring. The mixture was shaken/stirred until completely dissolved. About 3.0600 g of drospirenone, non-micronized with a particle size no less than about 50 μm (addition of an excess of about 2% was foreseen to make up for losses during the process), were added under constant stirring until completely dissolved. Once dissolved, about 3.4000 g of polyvinylpyrrolidone K-30 were added with stirring until completely dissolved.
Only about 16 ml methanol was used in this example, which compares to substantially the same volume as the about 16 ml methylene chloride/methanol (about 6:1) used in example 1. […] Recall that in example 1 drospirenone was completely dissolved. Again, the process was conducted in accordance with example 1, including the step of “Granulation—Drying” where a planetary-type mixer was used and the mixture kneaded. The name of the final batch granulated: LPDIMet-16 ml.
In an extra experiment related to this Example 2, in the step “Dissolution of the active ingredients and binder” methanol was added until complete dissolution. […]

stability of drospirenone in an acidic medium [1]: instability | amount of methanol required for complete dissolution ([2]; about 3.06 g drospirenone and about 0.0306 g ethynylestradiol): about 154.3 ml | dissolution of drospirenone in about 16 ml methanol ([2]; about 3.06 g drospirenone, methanol only): not enough for the total dissolution
Structure (SMILES): C[C@]12CCC(=O)C=C1[C@@H]1C[C@@H]1[C@H]1[C@@H]3[C@@H]4C[C@@H]4[C@@]4(CCC(=O)O4)[C@@]3(C)CC[C@@H]12 [drospirenone, 6β,7β,15β,16β-dimethylene-3-oxo-17α-pregn-4-ene-21,17-carbolactone]
